# In ChEMBL document CHEMBL3797052 (Eur J Med Chem, 2016):
# System: T47D
# Test: Antiproliferative activity against human T47D cells assessed as cell growth at 10^-8 M after 48 hrs by sulforhodamine B assay
# Format: functional
# Conditions: read-out: Activity
row,SMILES,growth at 0.01 µM [%]
1,CNC(=O)c1cc(Oc2ccc3nc(NC(=O)Nc4cc(C(F)(F)F)cc(C(F)(F)F)c4)sc3c2)ccn1,85

# System: CCRF-CEM
# Test: Antiproliferative activity against human CCRF-CEM cells assessed as cell growth at 10^-7 M after 48 hrs by sulforhodamine B assay
# Format: functional
# Conditions: read-out: Activity
row,SMILES,growth at 0.1 µM [%]
1,CNC(=O)c1cc(Oc2ccc3nc(NC(=O)Nc4cc(C(F)(F)F)cc(C(F)(F)F)c4)sc3c2)ccn1,114

# System: SR
# Test: Antiproliferative activity against human SR cells assessed as cell growth at 10^-7 M after 48 hrs by sulforhodamine B assay
# Format: functional
# Conditions: read-out: Activity
row,SMILES,growth at 0.1 µM [%]
1,CNC(=O)c1cc(Oc2ccc3nc(NC(=O)Nc4cc(C(F)(F)F)cc(C(F)(F)F)c4)sc3c2)ccn1,91

# System: NCI-H522
# Test: Antiproliferative activity against human NCI-H522 cells assessed as cell growth at 10^-7 M after 48 hrs by sulforhodamine B assay
# Format: functional
# Conditions: NCI-H522, 48 h, read-out: Activity
row,SMILES,growth at 0.1 µM [%]
1,CNC(=O)c1cc(Oc2ccc3nc(NC(=O)Nc4cc(C(F)(F)F)cc(C(F)(F)F)c4)sc3c2)ccn1,97

# System: not listed separately
# Test: Antiproliferative activity against human COLO205 cells assessed as cell growth at 10^-7 M after 48 hrs by sulforhodamine B assay
# Format: functional
# Conditions: COLO 205, 48 h, read-out: Activity
row,SMILES,growth at 0.1 µM [%]
1,CNC(=O)c1cc(Oc2ccc3nc(NC(=O)Nc4cc(C(F)(F)F)cc(C(F)(F)F)c4)sc3c2)ccn1,96

# System: not listed separately
# Test: Antiproliferative activity against human HCT116 cells assessed as cell growth at 10^-7 M after 48 hrs by sulforhodamine B assay
# Format: functional
# Conditions: HCT-116, 48 h, read-out: Activity
row,SMILES,growth at 0.1 µM [%]
1,CNC(=O)c1cc(Oc2ccc3nc(NC(=O)Nc4cc(C(F)(F)F)cc(C(F)(F)F)c4)sc3c2)ccn1,105

# System: not listed separately
# Test: Antiproliferative activity against human SF268 cells assessed as cell growth at 10^-7 M after 48 hrs by sulforhodamine B assay
# Format: functional
# Conditions: SF-268, 48 h, read-out: Activity
row,SMILES,growth at 0.1 µM [%]
1,CNC(=O)c1cc(Oc2ccc3nc(NC(=O)Nc4cc(C(F)(F)F)cc(C(F)(F)F)c4)sc3c2)ccn1,90

# System: not listed separately
# Test: Antiproliferative activity against human SNB19 cells assessed as cell growth at 10^-7 M after 48 hrs by sulforhodamine B assay
# Format: functional
# Conditions: SNB-19, 48 h, read-out: Activity
row,SMILES,growth at 0.1 µM [%]
1,CNC(=O)c1cc(Oc2ccc3nc(NC(=O)Nc4cc(C(F)(F)F)cc(C(F)(F)F)c4)sc3c2)ccn1,111

# System: SK-MEL-2
# Test: Antiproliferative activity against human SK-MEL-2 cells assessed as growth inhibition after 48 hrs by sulforhodamine B assay
# Format: functional
# Conditions: SK-MEL-2, 48 h
SMILES,GI50 [nM],TGI [nM]
CNC(=O)c1cc(Oc2ccc3nc(NC(=O)Nc4cc(C(F)(F)F)cc(C(F)(F)F)c4)sc3c2)ccn1,1050,3130

# Same assay, conditions: SK-MEL-2, 48 h, read-out: LC50 (the source's name)
row,SMILES,CC50 [nM]
1,CNC(=O)c1cc(Oc2ccc3nc(NC(=O)Nc4cc(C(F)(F)F)cc(C(F)(F)F)c4)sc3c2)ccn1,9310

# System: not listed separately
# Test: Antiproliferative activity against human LOXIMVI cells assessed as growth inhibition after 48 hrs by sulforhodamine B assay
# Format: functional
# Conditions: LOX IMVI
SMILES,GI50 [nM],TGI [nM]
CNC(=O)c1cc(Oc2ccc3nc(NC(=O)Nc4cc(C(F)(F)F)cc(C(F)(F)F)c4)sc3c2)ccn1,1210,2530

# Same assay, conditions: LOX IMVI, read-out: LC50 (the source's name)
row,SMILES,CC50 [nM]
1,CNC(=O)c1cc(Oc2ccc3nc(NC(=O)Nc4cc(C(F)(F)F)cc(C(F)(F)F)c4)sc3c2)ccn1,5290

# System: not listed separately
# Test: Antiproliferative activity against human UO31 cells assessed as cell growth at 10^-7 M after 48 hrs by sulforhodamine B assay
# Format: functional
# Conditions: UO-31, 48 h, read-out: Activity
row,SMILES,growth at 0.1 µM [%]
1,CNC(=O)c1cc(Oc2ccc3nc(NC(=O)Nc4cc(C(F)(F)F)cc(C(F)(F)F)c4)sc3c2)ccn1,94

# System: MDA-MB-231
# Test: Antiproliferative activity against human MDA-MB-231 cells assessed as cell growth at 10^-7 M after 48 hrs by sulforhodamine B assay
# Format: functional
# Conditions: MDA-MB-231, 48 h, read-out: Activity
row,SMILES,growth at 0.1 µM [%]
1,CNC(=O)c1cc(Oc2ccc3nc(NC(=O)Nc4cc(C(F)(F)F)cc(C(F)(F)F)c4)sc3c2)ccn1,98

# System: not listed separately
# Test: Antiproliferative activity against human SF268 cells assessed as growth inhibition after 48 hrs by sulforhodamine B assay
# Format: functional
# Conditions: SF-268, 48 h
SMILES,GI50 [nM],LC50 (concentration killing 50% of cells) [nM],TGI [nM]
CNC(=O)c1cc(Oc2ccc3nc(NC(=O)Nc4cc(C(F)(F)F)cc(C(F)(F)F)c4)sc3c2)ccn1,1270,6440,2860

# System: EKVX
# Test: Antiproliferative activity against human EKVX cells assessed as growth inhibition after 48 hrs by sulforhodamine B assay
# Format: functional
# Conditions: not given
SMILES,GI50 [nM],TGI [nM]
CNC(=O)c1cc(Oc2ccc3nc(NC(=O)Nc4cc(C(F)(F)F)cc(C(F)(F)F)c4)sc3c2)ccn1,1290,4560

# Same assay, conditions: read-out: LC50 (the source's name)
row,SMILES,CC50 [nM]
1,CNC(=O)c1cc(Oc2ccc3nc(NC(=O)Nc4cc(C(F)(F)F)cc(C(F)(F)F)c4)sc3c2)ccn1,59300

# System: T47D
# Test: Antiproliferative activity against human T47D cells assessed as growth inhibition after 48 hrs by sulforhodamine B assay
# Format: functional
# Conditions: not given
row,SMILES,GI50 [nM]
1,CNC(=O)c1cc(Oc2ccc3nc(NC(=O)Nc4cc(C(F)(F)F)cc(C(F)(F)F)c4)sc3c2)ccn1,479
